# According to patent US20250186437A1, “CARBOLINE COMPOUNDS AND USE THEREOF” (PTC Therapeutics, Inc., priority 2021, published 2025):
# Test system: MOLM-13 cells
# Assay: MOLM-13 Cell Proliferation Assay (indicator of DHODH inhibition)
# Format: cell-based
# Settings: Homo sapiens, 72 Hours of culture, CellTiter-Glo, no uridine
# Summary of the method: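 Proliferation readout via CellTiter-Glo luminescence after 72 h compound treatment (37 °C, 5% CO2, 0.5% DMSO) of MOLM-13 cells seeded at 10^4 per well in RPMI 1640/10% FBS, used as a DHODH-inhibition indicator since these cells rely on de novo pyrimidine synthesis.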
row,SMILES,IC50 [nM]
1,"Cc1ccc(C2c3[nH]c4ccc(Cl)c(F)c4c3CCN2c2ncc(C)cn2)cc1 (stereo not shown) [Compound 135, 6-chloro-5-fluoro-1-(4-methylphenyl)-2-(5-methylpyrimidin-2-yl)-2,3,4,9-tetrahydro-1H-pyrido[3,4-b]indole]",10.2
2,"FC(F)c1ccnc(N2CCc3c([nH]c4ccc(Cl)cc34)C2c2cnc(N3CCOCC3)nc2)n1 (stereo not shown) [Compound 334, 6-chloro-2-[4-(difluoromethyl)pyrimidin-2-yl]-1-[2-(morpholin-4-yl)pyrimidin-5-yl]-2,3,4,9-tetrahydro-1H-pyrido[3,4-b]indole]",13
3,"Fc1ccc(C2c3[nH]c4cc(F)c(Cl)cc4c3CCN2c2nccc(C(F)(F)F)n2)c(F)n1 (stereo not shown) [Compound 184, 6-chloro-1-(2,6-difluoropyridin-3-yl)-7-fluoro-2-[4-(trifluoromethyl)pyrimidin-2-yl]-2,3,4,9-tetrahydro-1H-pyrido[3,4-b]indole]",8
4,"Cc1ccc(C2c3[nH]c4cc(F)c(Cl)cc4c3CCN2c2ncc(F)c(C)n2)cc1 (stereo not shown) [Compound 123, 6-chloro-7-fluoro-2-(5-fluoro-4-methylpyrimidin-2-yl)-1-(4-methylphenyl)-2,3,4,9-tetrahydro-1H-pyrido[3,4-b]indole]",12.1
5,"Fc1cnc(N2CCc3c([nH]c4cc(F)c(Cl)cc34)C2c2ccc(C3CC3)cc2)nc1 (stereo not shown) [Compound 31, 6-chloro-1-(4-cyclopropylphenyl)-7-fluoro-2-(5-fluoropyrimidin-2-yl)-2,3,4,9-tetrahydro-1H-pyrido[3,4-b]indole]",24.1
6,"Fc1cc2[nH]c3c(c2cc1Cl)CCN(c1nccc(C(F)(F)F)n1)C3c1ccc(C(F)(F)F)cc1 (stereo not shown) [Compound 75, 6-chloro-7-fluoro-1-[4-(trifluoromethyl)phenyl]-2-[4-(trifluoromethyl)pyrimidin-2-yl]-2,3,4,9-tetrahydro-1H-pyrido[3,4-b]indole]",12.5
7,"Fc1ncccc1C1c2[nH]c3ccc(Cl)c(F)c3c2CCN1c1nccc(C(F)(F)F)n1 (stereo not shown) [Compound 226, 6-chloro-5-fluoro-1-(2-fluoropyridin-3-yl)-2-[4-(trifluoromethyl)pyrimidin-2-yl]-2,3,4,9-tetrahydro-1H-pyrido[3,4-b]indole]",25.4
8,"FC(F)(F)c1ccnc(N2CCc3c([nH]c4ccc(-n5cccn5)cc34)C2c2cnc(N3CCOCC3)nc2)n1 (stereo not shown) [Compound 301, 1-[2-(morpholin-4-yl)pyrimidin-5-yl]-6-(1H-pyrazol-1-yl)-2-[4-(trifluoromethyl)pyrimidin-2-yl]-2,3,4,9-tetrahydro-1H-pyrido[3,4-b]indole]",23.9
9,"Fc1cc2[nH]c3c(c2cc1Cl)CCN(c1ncc(Cl)cn1)C3c1ccc(C(F)(F)F)cc1 (stereo not shown) [Compound 80, 6-chloro-2-(5-chloropyrimidin-2-yl)-7-fluoro-1-[4-(trifluoromethyl)phenyl]-2,3,4,9-tetrahydro-1H-pyrido[3,4-b]indole]",31
10,"Fc1cncc(C2c3[nH]c4ccc(Cl)c(F)c4c3CCN2c2nccc(C(F)(F)F)n2)c1 (stereo not shown) [Compound 146, 6-chloro-5-fluoro-1-(5-fluoropyridin-3-yl)-2-[4-(trifluoromethyl)pyrimidin-2-yl]-2,3,4,9-tetrahydro-1H-pyrido[3,4-b]indole]",11.4
11,"Cc1ccc(C2c3[nH]c4ccc(Cl)c(F)c4c3CCN2c2ncc(F)cn2)cc1 (stereo not shown) [Compound 20, 6-chloro-5-fluoro-2-(5-fluoropyrimidin-2-yl)-1-(4-methylphenyl)-2,3,4,9-tetrahydro-1H-pyrido[3,4-b]indole]",12.9
12,"Cc1nc(C)nc(N2CCc3c([nH]c4ccc([N+](=O)[O-])cc34)C2c2cnc(N3CCOCC3)nc2)n1 (stereo not shown) [Compound 313, 2-(4,6-dimethyl-1,3,5-triazin-2-yl)-1-[2-(morpholin-4-yl)pyrimidin-5-yl]-6-nitro-2,3,4,9-tetrahydro-1H-pyrido[3,4-b]indole]",18.1
13,"N#Cc1ccc(C2c3[nH]c4ccc(Cl)c(F)c4c3CCN2c2ncc(F)cn2)cc1 (stereo not shown) [Compound 56, 4-[6-chloro-5-fluoro-2-(5-fluoropyrimidin-2-yl)-2,3,4,9-tetrahydro-1H-pyrido[3,4-b]indol-1-yl]benzonitrile]",25.7
14,"Cc1cnn(-c2ccc3[nH]c4c(c3c2)CCN(c2nc(C(F)(F)F)cc(C(F)(F)F)n2)C4c2cnc(N3CCOCC3)nc2)n1 (stereo not shown) [Compound 483, 2-[4,6-bis(trifluoromethyl)pyrimidin-2-yl]-6-(4-methyl-2H-1,2,3-triazol-2-yl)-1-[2-(morpholin-4-yl)pyrimidin-5-yl]-2,3,4,9-tetrahydro-1H-pyrido[3,4-b]indole]",8.5
15,"Cc1cc(C)nc(N2CCc3c([nH]c4cc(F)c(Cl)cc34)C2c2cccc(F)c2F)n1 (stereo not shown) [Compound 129, 6-chloro-1-(2,3-difluorophenyl)-2-(4,6-dimethylpyrimidin-2-yl)-7-fluoro-2,3,4,9-tetrahydro-1H-pyrido[3,4-b]indole]",7.6
16,"N#Cc1ccc(C2c3[nH]c4c(F)cc(Cl)cc4c3CCN2c2ncc(F)cn2)cc1 (stereo not shown) [Compound 33, 4-[6-chloro-8-fluoro-2-(5-fluoropyrimidin-2-yl)-2,3,4,9-tetrahydro-1H-pyrido[3,4-b]indol-1-yl]benzonitrile]",121
17,"Cc1cc(C)nc(N2CCc3c([nH]c4cc(F)c(Cl)cc34)C2c2ccc(C#N)cc2)n1 (stereo not shown) [Compound 93, 4-[6-chloro-2-(4,6-dimethylpyrimidin-2-yl)-7-fluoro-2,3,4,9-tetrahydro-1H-pyrido[3,4-b]indol-1-yl]benzonitrile]",9.7

# These reach a lower IC50. Values come first.
row,IC50 [nM],SMILES
1,1.9,"Cc1nc(N2CCc3c([nH]c4ccc(Cl)cc34)C2c2ccc(N3CCOCC3)nc2)nc(C(F)(F)F)n1 (stereo not shown) [Compound 439, 6-chloro-2-[4-methyl-6-(trifluoromethyl)-1,3,5-triazin-2-yl]-1-[6-(morpholin-4-yl)pyridin-3-yl]-2,3,4,9-tetrahydro-1H-pyrido[3,4-b]indole]"
2,3.4,"Cc1ccc([C@H]2c3[nH]c4ccc(Cl)cc4c3CCN2c2nc(N3CCOCC3)nc(C(F)(F)F)n2)cc1 [Compound 442, (1S)-6-chloro-1-(4-methylphenyl)-2-[4-(morpholin-4-yl)-6-(trifluoromethyl)-1,3,5-triazin-2-yl]-2,3,4,9-tetrahydro-1H-pyrido[3,4-b]indole]"
3,0.8,"Cc1ccc([C@H]2c3[nH]c4ccc(Cl)cc4c3CCN2c2ncnc(C(F)(F)F)n2)c(F)c1F [Compound 461, (1S)-6-chloro-1-(2,3-difluoro-4-methylphenyl)-2-[4-(trifluoromethyl)-1,3,5-triazin-2-yl]-2,3,4,9-tetrahydro-1H-pyrido[3,4-b]indole]"
4,2.5,"Cc1ccc([C@H]2c3[nH]c4ccc(Cl)cc4c3CCN2c2ncc(-c3ccccc3)cn2)c(F)c1F [Compound 471, (1S)-6-chloro-1-(2,3-difluoro-4-methylphenyl)-2-(5-phenylpyrimidin-2-yl)-2,3,4,9-tetrahydro-1H-pyrido[3,4-b]indole]"
5,1.6,"Cc1ccnc(N2CCc3c([nH]c4ccc(Cl)cc34)C2c2ccc(C)c(F)c2F)n1 (stereo not shown) [Compound 203, 6-chloro-1-(2,3-difluoro-4-methylphenyl)-2-(4-methylpyrimidin-2-yl)-2,3,4,9-tetrahydro-1H-pyrido[3,4-b]indole]"
6,1.3,"Cc1cnn(-c2ccc3[nH]c4c(c3c2)CCN(c2nc(C(F)(F)F)nc(C(F)(F)F)n2)[C@H]4c2ccc(C)c(F)c2F)n1 [Compound 525, (1S)-2-[4,6-bis(trifluoromethyl)-1,3,5-triazin-2-yl]-1-(2,3-difluoro-4-methylphenyl)-6-(4-methyl-2H-1,2,3-triazol-2-yl)-2,3,4,9-tetrahydro-1H-pyrido[3,4-b]indole]"
7,2.2,"Cc1ccc(C2c3[nH]c4ccc(Cl)cc4c3CCN2c2nccc(C(F)(F)F)n2)cc1F (stereo not shown) [Compound 354, 6-chloro-1-(3-fluoro-4-methylphenyl)-2-[4-(trifluoromethyl)pyrimidin-2-yl]-2,3,4,9-tetrahydro-1H-pyrido[3,4-b]indole]"
8,5.6,"Cc1ccc(C2c3[nH]c4ccc(Cl)c(F)c4c3CCN2c2ncc(F)c(C)n2)cc1 (stereo not shown) [Compound 109, 6-chloro-5-fluoro-2-(5-fluoro-4-methylpyrimidin-2-yl)-1-(4-methylphenyl)-2,3,4,9-tetrahydro-1H-pyrido[3,4-b]indole]"
9,4.7,"Cc1ccc(C2c3[nH]c4cc(F)c(Cl)cc4c3CCN2c2ncc(F)c(C#N)n2)cc1 (stereo not shown) [Compound 175, 2-[6-chloro-7-fluoro-1-(4-methylphenyl)-1,3,4,9-tetrahydro-2H-pyrido[3,4-b]indol-2-yl]-5-fluoropyrimidine-4-carbonitrile]"
10,1.8,"Cc1ccc(C2c3[nH]c4ccc(Cl)cc4c3CCN2c2nc(C)nc(C(F)(F)F)n2)cc1 (stereo not shown) [Compound 437, 6-chloro-1-(4-methylphenyl)-2-[4-methyl-6-(trifluoromethyl)-1,3,5-triazin-2-yl]-2,3,4,9-tetrahydro-1H-pyrido[3,4-b]indole]"
11,0.3,"Fc1c(Br)ccc(C2c3[nH]c4ccc(Cl)cc4c3CCN2c2nccc(C(F)(F)F)n2)c1F (stereo not shown) [Compound 270, 1-(4-bromo-2,3-difluorophenyl)-6-chloro-2-[4-(trifluoromethyl)pyrimidin-2-yl]-2,3,4,9-tetrahydro-1H-pyrido[3,4-b]indole]"
12,1.1,"Cc1ccc(C2c3[nH]c4ccc(Cl)c(F)c4c3CCN2c2ncc(F)c(C)n2)c(F)c1F (stereo not shown) [Compound 114, 6-chloro-1-(2,3-difluoro-4-methylphenyl)-5-fluoro-2-(5-fluoro-4-methylpyrimidin-2-yl)-2,3,4,9-tetrahydro-1H-pyrido[3,4-b]indole]"
13,7.1,"OCc1ccc(C2c3[nH]c4cc(F)c(Cl)cc4c3CCN2c2nccc(C(F)(F)F)n2)cc1 (stereo not shown) [Compound 166, (4-{6-chloro-7-fluoro-2-[4-(trifluoromethyl)pyrimidin-2-yl]-2,3,4,9-tetrahydro-1H-pyrido[3,4-b]indol-1-yl}phenyl)methanol]"
14,5.7,"Cc1ccc([C@H]2c3[nH]c4ccc(Cl)cc4c3CCN2c2nc(N(C)C)nc(C(F)(F)F)n2)cc1 [Compound 441, 4-[(1S)-6-chloro-1-(4-methylphenyl)-1,3,4,9-tetrahydro-2H-pyrido[3,4-b]indol-2-yl]-N,N-dimethyl-6-(trifluoromethyl)-1,3,5-triazin-2-amine]"
